Test results published in ChEMBL document CHEMBL2074423, “Inhibition of P-glycoprotein activity and reversal of cancer multidrug resistance by Momordica charantia extract” (Cancer Chemother Pharmacol, 2004).

Target: ATP-dependent translocase ABCB1 (Homo sapiens, UniProt P08183)
Test: TP_TRANSPORTER: drug resistance (vinblastine) in KB-V1 cells
Assay type: functional, cell-based

Chain of ATP-dependent translocase ABCB1 (P08183 whole entry): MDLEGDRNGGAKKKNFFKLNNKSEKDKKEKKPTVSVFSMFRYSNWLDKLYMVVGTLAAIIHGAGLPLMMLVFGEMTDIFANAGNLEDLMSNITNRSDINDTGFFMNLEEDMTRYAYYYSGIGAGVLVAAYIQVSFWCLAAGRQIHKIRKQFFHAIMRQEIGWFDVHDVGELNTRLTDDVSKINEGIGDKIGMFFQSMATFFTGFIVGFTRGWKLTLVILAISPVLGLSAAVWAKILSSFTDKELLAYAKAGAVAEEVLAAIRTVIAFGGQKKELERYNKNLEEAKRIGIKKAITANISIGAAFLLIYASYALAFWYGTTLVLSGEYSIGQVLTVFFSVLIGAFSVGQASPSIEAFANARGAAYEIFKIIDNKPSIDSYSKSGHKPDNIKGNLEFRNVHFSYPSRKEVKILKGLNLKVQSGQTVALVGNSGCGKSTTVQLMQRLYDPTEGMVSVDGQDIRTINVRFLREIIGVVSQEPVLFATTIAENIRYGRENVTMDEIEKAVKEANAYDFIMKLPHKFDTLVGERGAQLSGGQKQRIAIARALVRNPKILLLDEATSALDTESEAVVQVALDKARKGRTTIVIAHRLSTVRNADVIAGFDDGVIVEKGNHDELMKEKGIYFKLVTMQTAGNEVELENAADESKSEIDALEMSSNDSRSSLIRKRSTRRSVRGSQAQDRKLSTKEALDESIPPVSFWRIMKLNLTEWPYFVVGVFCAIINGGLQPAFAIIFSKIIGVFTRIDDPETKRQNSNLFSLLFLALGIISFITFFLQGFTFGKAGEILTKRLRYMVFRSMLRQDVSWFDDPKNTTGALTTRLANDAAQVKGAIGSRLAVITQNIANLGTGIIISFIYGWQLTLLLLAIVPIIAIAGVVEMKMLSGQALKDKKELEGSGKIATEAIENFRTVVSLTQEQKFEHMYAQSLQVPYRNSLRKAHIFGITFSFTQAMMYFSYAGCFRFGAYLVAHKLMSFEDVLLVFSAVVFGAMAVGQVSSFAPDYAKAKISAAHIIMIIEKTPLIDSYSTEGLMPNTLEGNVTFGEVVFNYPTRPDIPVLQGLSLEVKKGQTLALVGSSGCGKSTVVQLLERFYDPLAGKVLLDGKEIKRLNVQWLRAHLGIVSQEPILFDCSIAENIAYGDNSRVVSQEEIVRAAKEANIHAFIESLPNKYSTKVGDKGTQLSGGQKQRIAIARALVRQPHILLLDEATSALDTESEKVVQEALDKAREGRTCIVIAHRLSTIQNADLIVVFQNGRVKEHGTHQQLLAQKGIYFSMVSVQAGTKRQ

In the case of BITTER MELON LEAF EXTRACT, the Activity is reported as “inhibitor [+]”.
